Test results taken from patent publication EP2607478A1, “Phenanthroline treated MSC” (Universiteit Twente, priority 2011, dated 2013).

System: MSCs
Experiment: Whole genome expression analysis (Illumina microarray) of treated MSCs
Assay type: cell-based, Human
Settings: DFO versus Bas
Description: MSCs were seeded in T25 flasks at 5000 cells/cm^2 and allowed to attach overnight in proliferation medium. […] After 48 hours, RNA was isolated as described above. From 500 ng of RNA, cRNA was synthesized using the Illumina TotalPrep RNA amplification Kit (Ambion), according to the manufacturer's protocol and the quality of RNA and cRNA was verified on a Bioanalyzer 2100 (Agilent). Microarrays were performed using Illumina HT-12 v4 expression Beadchips, according to the manufacturer's protocol. Briefly, 750 ng of cRNA was hybridized on the array overnight after which the array was washed and blocked. Then, by addition of streptavidin Cy-3 a fluorescent signal was developed. Arrays were scanned on an Illumina iScan reader and raw intensity values were background corrected in GenomeStudio (Illumina). Further data processing and statistical testing were performed with R and Bioconductor statistical software (www.bioconductor.org), using package lumi. Raw intensity values were transformed using variance stabilization and a quantile normalization was performed. A linear modelling approach with empirical Bayesian methods, as implemented in Limma package (54), was applied for differential expression analysis of the resulting probe-level expression values. A gene list, containing only those genes with an absolute 1.5-fold change between different treatments, was uploaded to Ingenuity Pathway Analysis (IPA) software and used for core analysis. Pathways or networks with a p-value of 0.05 were considered statistically significant.

CC(=O)N(O)CCCCCNC(=O)CCC(=O)N(O)CCCCCNC(=O)CCC(=O)N(O)CCCCCN [DFO, reference compound]
logFC(D142_ DFO - D142_BAS) (ProbeID ILMN_1699644): 2,52 | logFC(D142_ DFO - D142_BAS) RRAGD (ProbeID ILMN_1699772): 2,43 | logFC(D142_ DFO - D142_BAS) QPRT (ProbeID ILMN_1700268): -2,44 | logFC(D142_ DFO - D142_BAS) SULF1 (ProbeID ILMN_1702363): -2,42 | logFC(D142_ DFO - D142_BAS) TNFRSF19 (ProbeID ILMN_1704154): -2,00 | logFC(D142_ DFO - D142_BAS) SLC6A10P (ProbeID ILMN_1704446): 2,82 | logFC(D142_ DFO - D142_BAS) PHGDH (ProbeID ILMN_1704537): 2,18 | logFC(D142_ DFO - D142_BAS) ANGPTL4 (ProbeID ILMN_1707727): 6,19 | logFC(D142_ DFO - D142_BAS) TP53INP1 (ProbeID ILMN_1714108): 2,66 | logFC(D142_ DFO - D142_BAS) NNMT (ProbeID ILMN_1715508): -2,16 | logFC(D142_ DFO - D142_BAS) NGF (ProbeID ILMN_1716608): 2,73 | logFC(D142_ DFO - D142_BAS) C5orf46 (ProbeID ILMN_1718866): 2,59 | logFC(D142_ DFO - D142_BAS) BNIP3L (ProbeID ILMN_1718961): 2,24 | logFC(D142_ DFO - D142_BAS) SLC7A5 (ProbeID ILMN_1720373): 3,21 | logFC(D142_ DFO - D142_BAS) JMJD1A (ProbeID ILMN_1722532): 2,13 | logFC(D142_ DFO - D142_BAS) HK2 (ProbeID ILMN_1723486): 2,21 | logFC(D142_ DFO - D142_BAS) BNIP3 (ProbeID ILMN_1724658): 3,37 | logFC(D142_ DFO - D142_BAS) CTHRC1 (ProbeID ILMN_1725090): -2,13 | logFC(D142_ DFO - D142_BAS) CA9 (ProbeID ILMN_1725139): 3,31 | logFC(D142_ DFO - D142_BAS) SLC3A2 (ProbeID ILMN_1726456): 2,31 | logFC(D142_ DFO - D142_BAS) OLFML3 (ProbeID ILMN_1727532): -2,91 | logFC(D142_ DFO - D142_BAS) PRC1 (ProbeID ILMN_1728934): -2,66 | logFC(D142_ DFO - D142_BAS) STEAP1 (ProbeID ILMN_1733094): -2,15 | logFC(D142_ DFO - D142_BAS) COL12A1 (ProbeID ILMN_1733756): -2,56 | logFC(D142_ DFO - D142_BAS) PPP1R3C (ProbeID ILMN_1736670): 2,33 | logFC(D142_ DFO - D142_BAS) TMEM119 (ProbeID ILMN_1738116): -3,83 | logFC(D142_ DFO - D142_BAS) ULBP1 (ProbeID ILMN_1738407): 2,07 | logFC(D142_ DFO - D142_BAS) PLAT (ProbeID ILMN_1738742): 2,03 | logFC(D142_ DFO - D142_BAS) TUBA1A (ProbeID ILMN_1742981): -2,06 | logFC(D142_ DFO - D142_BAS) EGR2 (ProbeID ILMN_1743199): 2,34 | logFC(D142_ DFO - D142_BAS) C1QTNF5 (ProbeID ILMN_1744487): -2,69 | logFC(D142_ DFO - D142_BAS) ERO1L (ProbeID ILMN_1744963): 3,58 | logFC(D142_ DFO - D142_BAS) CEP55 (ProbeID ILMN_1747016): -2,32 | logFC(D142_ DFO - D142_BAS) EGLN1 (ProbeID ILMN_1749892): 2,28 | logFC(D142_ DFO - D142_BAS) IGFBP5 (ProbeID ILMN_1750324): 2,71 | logFC(D142_ DFO - D142_BAS) SESN2 (ProbeID ILMN_1751598): 2,18 | logFC(D142_ DFO - D142_BAS) PGK1 (ProbeID ILMN_1755749): 2,16 | logFC(D142_ DFO - D142_BAS) ALDOC (ProbeID ILMN_1755974): 2,33 | logFC(D142_ DFO - D142_BAS) ANKRD37 (ProbeID ILMN_1756417): 3,40 | logFC(D142_ DFO - D142_BAS) COQ2 (ProbeID ILMN_1756572): -2,03 | logFC(D142_ DFO - D142_BAS) NDUFA4L2 (ProbeID ILMN_1756573): 5,66 | logFC(D142_ DFO - D142_BAS) STC1 (ProbeID ILMN_1758164): 3,77 | logFC(D142_ DFO - D142_BAS) HIST1H2BD (ProbeID ILMN_1758623): 2,40 | logFC(D142_ DFO - D142_BAS) FAM107B (ProbeID ILMN_1758672): 2,18 | logFC(D142_ DFO - D142_BAS) LOC441019 (ProbeID ILMN_1761281): 2,16 | logFC(D142_ DFO - D142_BAS) AK3L1 (ProbeID ILMN_1764090): 2,74 | logFC(D142_ DFO - D142_BAS) OLFML2B (ProbeID ILMN_1765557): -3,16 | logFC(D142_ DFO - D142_BAS) LOC399942 (ProbeID ILMN_1765701): -2,67 | logFC(D142_ DFO - D142_BAS) ENO2 (ProbeID ILMN_1765796): 4,08
